# Target: T1, BurG (Burkholderia thailandensis, UniProt Q2T3G7)
# T1 construct: gene ilvC-2
compound,measurement,value
NC(=O)C1=CN([C@@H]2O[C@H](COP(=O)(O)OP(=O)(O)OC[C@H]3O[C@@H](n4cnc5c(N)ncnc54)[C@H](O)[C@@H]3O)[C@@H](O)[C@H]2O)C=CC1 [NADH],"X-ray co-crystal structure, 2.05 Å",complexed between the two magnesium atoms and NADH in the active site
